ChEMBL document CHEMBL3779797, “Isoindole-1,3-dione derivatives as RSK2 inhibitors: synthesis, molecular docking simulation and SAR analysis” (Medchemcomm, 2016)

What was measured:
[1] = target: Ribosomal protein S6 kinase alpha-2 (Homo sapiens) (UniProt Q15349); test: Inhibition of N-terminal His6 tagged full-length human recombinant active RSK2 at 10 uM using S6 peptide after 20 mins by fluorescence assay
[2] = Inhibition of RSK2 in rabbit skeletal muscle using KKRNRTLSVA as substrate after 10 mins in presence of [gamma32P]ATP; design: species or system Oryctolagus cuniculus

Chain of Ribosomal protein S6 kinase alpha-2 (Homo sapiens) (Q15349 whole entry): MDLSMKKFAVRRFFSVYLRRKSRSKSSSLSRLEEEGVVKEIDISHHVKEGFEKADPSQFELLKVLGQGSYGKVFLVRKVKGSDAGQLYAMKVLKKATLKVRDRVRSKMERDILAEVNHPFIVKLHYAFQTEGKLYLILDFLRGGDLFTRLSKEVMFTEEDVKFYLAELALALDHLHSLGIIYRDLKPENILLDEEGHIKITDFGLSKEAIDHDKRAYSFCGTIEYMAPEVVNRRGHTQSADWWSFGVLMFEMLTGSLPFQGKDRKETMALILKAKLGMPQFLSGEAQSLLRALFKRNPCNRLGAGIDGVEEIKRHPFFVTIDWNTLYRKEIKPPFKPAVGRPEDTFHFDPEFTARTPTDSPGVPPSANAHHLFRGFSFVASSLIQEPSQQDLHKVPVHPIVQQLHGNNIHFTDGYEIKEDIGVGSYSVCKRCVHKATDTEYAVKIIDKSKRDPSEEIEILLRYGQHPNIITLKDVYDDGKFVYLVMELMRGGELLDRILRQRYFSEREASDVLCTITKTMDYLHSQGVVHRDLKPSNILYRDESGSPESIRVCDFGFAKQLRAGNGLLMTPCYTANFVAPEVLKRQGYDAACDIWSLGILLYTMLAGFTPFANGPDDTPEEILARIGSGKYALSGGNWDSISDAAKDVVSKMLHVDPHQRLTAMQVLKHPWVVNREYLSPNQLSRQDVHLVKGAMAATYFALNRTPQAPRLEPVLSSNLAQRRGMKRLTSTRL

| Structure (SMILES) | inhibition [1] | IC50 [2] |
| --- | --- | --- |
| CN(C)CCCn1cc(C2=C(c3c[nH]c4ccccc34)C(=O)NC2=O)c2ccccc21 [GF-109203] |  | 50 nM |
| COc1ccc(N(C)CN2C(=O)c3ccccc3C2=O)cc1 | 87% |  |
| Cc1ccc(NCN2C(=O)c3ccc([N+](=O)[O-])cc3C2=O)cc1 | 35.7% |  |
| O=C1c2ccccc2C(=O)N1CNc1ccccc1 | 43.6% |  |
| CCOc1ccc(NCN2C(=O)c3ccc([N+](=O)[O-])cc3C2=O)cc1 | 87% |  |
| CCOc1ccc(NCN2C(=O)c3ccccc3C2=O)cc1 | 100% |  |
| Cn1cc(C2=C(c3cn(CCCSC(=N)N)c4ccccc34)C(=O)NC2=O)c2ccccc21 [BISINDOLYLMALEIMIDE IX] | 98.2% | 3 nM |
| CCc1ccc(NCN2C(=O)c3ccccc3C2=O)cc1 | 63% |  |
| COc1ccc(N(CN2C(=O)c3ccccc3C2=O)C(C)=O)cc1 | 17.2% |  |
| COc1ccc(NCN2C(=O)c3ccc(N)cc3C2=O)cc1 | 109% |  |
| COc1ccc(NCN2C(=O)c3cccc(N)c3C2=O)cc1 | 95.6% |  |
| CC(C)c1ccc(NCN2C(=O)c3ccccc3C2=O)cc1 | 46.5% |  |
| O=C1c2ccccc2C(=O)N1CNc1ccc(OC(F)(F)F)cc1 | 28.1% |  |
| CCN(CC)c1ccc(NCN2C(=O)c3ccccc3C2=O)c(C)c1 | 81% |  |

The next lines start with the values.

| inhibition [1] | IC50 [2] | Structure (SMILES) |
| --- | --- | --- |
| 82% |  | COc1ccc(NCN2C(=O)c3ccc(NC(=O)c4ccccc4)cc3C2=O)cc1 |
| 101% |  | O=C1c2ccccc2C(=O)N1CNc1ccc(N2CCOCC2)cc1 |
| 99.5% |  | COc1ccc(NCN2C(=O)c3cccc(NC(=O)c4ccccc4)c3C2=O)cc1 |
| 56.7% |  | O=C1c2ccccc2C(=O)N1CNc1ccc(F)cc1 |
| 103% |  | O=C(Nc1ccc2c(c1)C(=O)N(CNc1ccc(N3CCOCC3)cc1)C2=O)c1ccccc1 |
| 8.52% |  | O=C1c2ccccc2C(=O)N1CNc1ccc(Cl)cc1 |
| 69.5% |  | CCOc1ccc(NCN2C(=O)c3ccc(NC(=O)c4ccccc4)cc3C2=O)cc1 |
| 105% |  | CCOc1ccc(NCN2C(=O)c3cccc(NC(=O)c4ccccc4)c3C2=O)cc1 |
| 97.2% |  | COc1ccc(NCN2C(=O)c3ccccc3C2=O)cc1 |
| 54% |  | Cc1ccc(NCN2C(=O)c3ccccc3C2=O)cc1 |
| 34.8% |  | COc1ccc(NCN2C(=O)c3ccc(NC(=O)Nc4ccccc4)cc3C2=O)cc1 |
| 101% |  | O=C1c2ccccc2C(=O)N1CNc1ccc(O)cc1 |
